target: Prostaglandin E2 receptor EP2 subtype (Homo sapiens) (UniProt P43116); test: EP2 receptor modulators, dose response, cell-based, human EP2, PGE2 EC50 shift (AID 1421); settings: EP2-expressing cells, PGE2 EC50 shift by compound; measured here: PGE2 EC50 at 6.7 uM compound
Sequence (P43116 whole entry, looked up): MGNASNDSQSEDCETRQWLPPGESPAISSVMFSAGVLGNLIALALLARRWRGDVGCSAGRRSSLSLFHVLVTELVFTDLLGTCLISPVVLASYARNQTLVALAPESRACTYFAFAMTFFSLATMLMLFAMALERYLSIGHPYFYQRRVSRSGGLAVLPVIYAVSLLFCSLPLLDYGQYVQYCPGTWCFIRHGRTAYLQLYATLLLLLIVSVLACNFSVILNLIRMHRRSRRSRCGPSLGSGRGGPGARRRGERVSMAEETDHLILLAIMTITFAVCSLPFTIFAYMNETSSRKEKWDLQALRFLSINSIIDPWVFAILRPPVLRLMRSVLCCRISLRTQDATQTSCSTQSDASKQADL

Row | Compound | PGE2 EC50 with compound
1 | C/C(Cl)=C/Cn1c(SC(C)C)nc2c1c(=O)[nH]c(=O)n2C | 0.95 nM
2 | Cc1noc(C)c1COC(=O)C(c1ccccc1)c1ccccc1 | 1.27 nM
3 | O=C(COc1ccccc1)Nc1cc(C(F)(F)F)ccc1N1CCCC1 | 0.91 nM
4 | CCOC(=O)c1c(N)sc(-c2ccccc2)c1C | 2.56 nM
5 | CCOC(=O)Nc1sc2c(c1C(=O)OCC)CCC2 | 0.84 nM
6 | COc1ccc(C2=Nn3c(nnc3-c3ccccc3OC)SC2)cc1OC | 0.93 nM
7 | CCSc1nc2c(c(=O)[nH]c(=O)n2C)n1Cc1ccc(Cl)cc1 | 1.24 nM
8 | CCOC(=O)C1CCCN(c2c(C(=O)c3ccccc3)cnc3ccc(OC)cc23)C1 (stereo not given) | 1.15 nM
9 | Cc1cc(Nc2ccc(Br)cc2)n2nc(C)nc2n1 | 1.06 nM
10 | O=C(c1ccc2c(c1)OCO2)N(Cc1cccs1)C1(C(=O)NC2CCCCC2)CCCCC1 | 1.08 nM
11 | C[C@]12CCC3C(CC[C@H]4C[C@@H](Cl)CC[C@]34C)C1CCC2=O (stereo not given in full) | 0.99 nM
12 | Cc1ccc(-c2nn(-c3ccccc3)cc2CN(Cc2ccccc2)C(=O)c2ccco2)o1 | 0.7 nM
13 | Cc1ccc(NCc2ccccc2OCc2ccccc2F)cc1 | 0.86 nM
14 | CCCSc1nc(N2CCOCC2)c2c(c1C#N)CCCC2 | 1.06 nM
15 | C=CCC(NCc1ccccc1)c1ccc(Cl)cc1 (stereo not given) | 1.14 nM
16 | O=C(Nc1ccccc1-c1nc2ccccc2s1)c1ccc(Br)o1 | 1.02 nM
17 | COc1cccc2[nH]c3c(N4CCC(C)CC4)ncnc3c12 | 2.38 nM
18 | CCCc1cc(=O)n2[nH]c(NCc3cccs3)nc2n1 | 2.54 nM
19 | Cn1c(=O)[nH]c(=O)c2c1nc(CN1CCN(c3ccccc3F)CC1)n2CCCc1ccccc1 | 0.83 nM
20 | CCc1ccc2nc(-c3cccc(C)c3)nc(SCC(=O)NCC3CCCO3)c2c1 (stereo not given) | 2.64 nM

Row | Compound | PGE2 EC50 with compound
21 | Cc1ccc(N(CC(=O)N/N=C/c2ccc(OC3CSC3)cc2)S(=O)(=O)c2ccccc2)cc1 | 1.01 nM
22 | Clc1ccc(-c2nc3ccccn3c2CN2CCCCC2)cc1 | 1.26 nM
23 | CCCCOc1ccccc1NC(=O)c1scc2c1OCCO2 | 0.32 nM
24 | CCCCn1c(-c2csc(CCC)c2)n[nH]c1=S | 1.28 nM
25 | Cc1cc(SCC(=O)c2ccccc2)nc2ccccc12 | 1.09 nM
26 | NC(=NCCC[C@H](N)C(=O)O)N[N+](=O)[O-] | 1.93 nM
27 | CCOC(=O)c1cnc2ccc(OCC)cc2c1N(C)Cc1ccccc1 | 2.48 nM
28 | CC(=O)O[C@H]1C[C@@H](OC(C)=O)C(C)(C)C2C[C@@H](OC(C)=O)[C@]3(C)C([C@H](OC(C)=O)C[C@@]4(C)[C@H](c5ccoc5)OC(=O)[C@H]5O[C@]543)[C@]21C (stereo not given in full) | 1.05 nM
29 | CCCOP(=O)(OCCC)c1nc(-c2ccccc2)oc1NCc1ccccc1 | 1.01 nM
30 | Nc1c(C(=O)NCc2ccco2)c2nc3ccccc3nc2n1CCc1ccccc1 | 1.78 nM
31 | c1ccc(-c2nn3c(C4CCCCC4)nnc3s2)cc1 | 1.07 nM
32 | CCCCc1nc(N2CCOCC2)c(C#N)c2c1CCCC2 | 0.98 nM
33 | Cc1cccc(NCc2nc3ccccc3n2Cc2ccccc2)c1 | 1.13 nM
34 | COc1c(O)cc2oc3cc(O)c(CC=C(C)C)c(O)c3c(=O)c2c1CC=C(C)C | 2.62 nM
35 | O=C(CO/N=C/c1ccccc1)N1c2ccccc2Oc2ccccc21 | 1.45 nM
36 | CCOC(=O)c1cc(C)sc1NC(=O)c1ccc(Cl)s1 | 0.73 nM
37 | Cc1cccc(C)c1NC(=O)CSc1nc(COc2ccccc2)nc2ccccc12 | 0.82 nM
38 | CCCCCn1c(CN2CCN(c3cc(Cl)ccc3C)CC2)nc2c1c(=O)[nH]c(=O)n2C | 1.25 nM
39 | O=C(CNCC1CCCCC1)Nc1ccccc1N1CCCCC1 | 0.81 nM
40 | CCn1c(=NC(=O)c2ccc(S(=O)(=O)N(C)C)cc2)sc2cccc(OC)c21 | 1.17 nM

Source: PubChem BioAssay AID1421 (Emory University Molecular Libraries Screening Center, 2008)
